Measured values taken from patent publication US5166348A, “Bornyl and isobornyl esters of carboxylic acids of condensed tetrahydroquinoxalines” (Uralsky politekhnichesky institut, priority 1989, dated 1992).
Where “and” joins values, the source holds several entries; their conditions need not be identical. Equal entries are not always repeated. Entries after “also recorded” stand apart in the source; their conditions may differ. Where two headings read alike, the source gives them in different places.

Legend:
[1] = test system: mice; conditions: mouse, in vivo
[2] = test system: influenza virus B; format: in vivo, albino mice; conditions: for % of diseased mice and of died mice / % of diseased mice and died mice / Efficiency, % / Elongation of animal life in test group (compared with control) / Mean Incubation / Protection factor / Elongation of animals life in test group compared with control / Mean incubation period / Factor of reduction of number of diseased mice (protection factor): influenza virus B; for Factor of reduction of number of diseased mice (protection factor): compared with control
[3] = acute toxicity, oral, mongrel albino mice; conditions: mouse, in vivo
Method: Acute toxicity of the proposed compounds 1a through 1e was tested in experiments on mongrel albino mice with oral administration of the drug.

[4] = test system: viruses; test: spectrum of antiviral activity, summary
[5] = test system: influenza virus C; test: activity against influenza virus C in chick embryos, summary; format: in vivo
Source text: The activity of the proposed compound 1a against influenza virus C has been studied.

[6] = test system: influenza virus C, C(USA)1233/47; format: in vivo, chick embryos
[7] = test system: influenza virus C, C(Leningrad)412/83; format: in vivo, chick embryos
[8] = test system: tick-borne encephalitis virus (Absettar strain); format: in vivo, mongrel albino mice
[9] = test system: influenza virus; format: in vivo, mice
[10] = test system: RS virus (strain Novoshakhtinsky 3080); test: reproduction of RS virus in L-41 tissue culture; format: cell-based
Method: (§1) Activity of the proposed compound 1a to the agent causing respiratory syncytial infection was tested. […]

[11] = test system: mice; test: toxicity for mice; conditions: compared with remantadine
[12] = test system: influenza virus C, C(Ulan-Ude)131/86; format: in vivo, chick embryos
[13] = test system: influenza virus; format: in vivo, mice; remark: listed apart in the source
[14] = test system: influenza virus; conditions: given intranasally to pregnant mice + influenza virus
[15] = test system: RS virus; test: RS virus reproduction in the lungs of infected cotton rats; format: in vivo; conditions: intranasally
Method: as §1

[16] = test system: influenza virus C, C(Leningrad)393/87; format: in vivo, chick embryos
[17] = 1 mg/mouse, 24 hours and 1 hour before and 24, 48 and 72 hours after infection
[18] = 0.2 ml of 0.5% solution into the stomach

Compound: CCC(N)C12CC3CC(CC(C3)C1)C2 (stereo not shown) [adapromine, reference compound]
- Toxicity for mice [1]: 6 mg/mouse
- % of diseased mice and of died mice ([2]; per os, 1 mg per animal): 25% and 12% and 20%
- Minimum effective dose against influenza viruses, type B ([2]; influenza virus type B): 1.0 mg/mouse
- Chemotherapeutic index for influenza viruses, type B ([2]; influenza virus type B, toxicity vs minimum effective dose): 6
- LD50 [3]: 45 mg/kg

Compound: CC1=C(C(=O)OC2CC3CCC2(C)C3(C)C)C2Nc3ccccc3N(C)C2O1 (stereo not shown) [compound 1a, isobornyl ester of 2,9-dimethyl-3a,4,9,9a-tetrahydrofuro [2,3-b] quinoxaline-3-carboxylic acid]
- spectrum of antiviral activity (in words) [4]: most pronounced effect against the virus of the tick-borne encephalitis, epidemic, influenza viruses A, B and C, including those resistant to remantadine, and also the virus causing respiratory syncytial infection
- Toxicity for mice [1]: 16 mg/mouse
- activity against influenza virus C (in words) [5]: inhibits reproduction of influenza virus C
- Titre of virus (lg) in embryo [6]: 2.8 ± 0.4 lg
- Inhibition of virus reproduction (lg) ([6]; vs solvent control): 1.7 lg
- Titre of virus (lg) in embryo [7]: 3.5 ± 0.3 lg
- Inhibition of virus reproduction (lg) ([7]; vs solvent control): 1.5 lg
- % of diseased mice and died mice [2, 17]: 20%
- Efficiency, % [2, 17]: 73%
- Elongation of animal life in test group (compared with control) [2, 17]: 2.4 days
- Mean Incubation [2, 17]: 11.0
- Protection factor [2, 17]: 3.7
- % of diseased mice and of died mice ([2]; per os, 1 mg per animal): 20%
- Efficiency, % ([2]; per os, 1 mg per animal): 73%
- Elongation of animals life in test group compared with control ([2]; per os, 1 mg per animal): 2.4 days
- Mean incubation period ([2]; per os, 1 mg per animal): 11.0 days
- Factor of reduction of number of diseased mice (protection factor) ([2]; per os, 1 mg per animal): 3.7
- Minimum effective dose against influenza viruses, type B ([2]; influenza virus type B): 0.04 mg/mouse
- Efficiency, % [8, 18]: 70%
- Elongation of animal life in group of treated animals [8, 18]: 1.5 days
- Mean incubation period [8, 18]: 11.4 days
- % of diseased mice and mice which died ([8]; 0.2 ml of 0.5% solution into the stomach, 4 h before and 24, 48, 72, 96 h after infection): 18.7%
- Factor of reduction of quantity of diseased mice (protective factor) ([8]; 0.2 ml of 0.5% solution into the stomach, vs physiological saline control): 3.3
- activity against the causative agent of tick-borne encephalitis (in words) ([8]; mouse, in vivo): antiviral activity of the compound against the causative agent of tick-borne encephalitis; also recorded: highly active against the causative agent of tick-borne encephalitis
- mortality rate ([8]; test group, control group 62.5%): 18.7%
- decrease of mortality rate, times less ([8]; test vs control group): 3.3 times
- protection and growth of nurslings, course of infection (in words) ([9]; mouse, in vivo): protects their nurslings from infection and death; moreover, it promotes their normal growth as estimated by gain in weight; also recorded: almost does not differ from the weight of young mice borne from control mice; also recorded: promotes an asymptomatic course of infection in pregnant mice and formation of immunity in their posterity
- Mean weight of suckling mice, g, day 0 ([9]; plus influenza virus, day 0): 1.5 g
- Mean weight of suckling mice, g, day 3 ([9]; plus influenza virus, day 3): 2.6 g
- Mean weight of suckling mice, g, day 5 ([9]; plus influenza virus, day 5): 3.4 g
- Mean weight of suckling mice, g, day 7 ([9]; plus influenza virus, day 7): 3.4 g
- Mean weight of suckling mice, g, day 9 ([9]; plus influenza virus, day 9): 3.6 g
- % of test tubes with degenerated culture ([10]; L-41 tissue culture): 17%
- Intensity of reduction of quantity of test tubes with degenerated cultures ([10]; L-41 tissue culture): 0.18
- Factor of reduction of quantity of test tubes with degenerated cultures ([10]; L-41 tissue culture, vs 0.9% NaCl solution): 5.3
- effect on reproduction of RS virus (in words) ([10]; tissue culture L-41, strain Novoshakhtinsky 3030 as printed in text): inhibits reproduction of RS virus
- toxicity lower than that of remantadine, times [11]: 2.5-3 times
- Titre of virus (lg) in embryo [12]: 3.6 ± 0.3 lg
- Inhibition of virus reproduction (lg) ([12]; vs solvent control): 1.6 lg
- % of lethal cases among mice after infection of their mothers, in 6 days ([13]; given to female mice + virus, 6 days): 3%
- % of lethal cases among mice after infection of their mothers, in 7 days ([13]; given to female mice + virus, 7 days): 10%
- % of lethal cases among mice after infection of their mothers, in 8 days ([13]; given to female mice + virus, 8 days): 10%
- % of lethal cases among mice after infection of their mothers, in 9 days ([13]; given to female mice + virus, 9 days): 10%
- % of lethal cases among mice after infection of their mothers, in 10 days ([13]; given to female mice + virus, 10 days): 13%
- protection of sucklings (in words) ([13]; given to pregnant or nursing mice): protects the sucklings from trasnplacental infection with the virus or infection from a diseased mouse
- Mortality rate among suckling mice, %, 4 days after infection ([14]; 4 days): 0%
- Mortality rate among suckling mice, %, 7 days after infection ([14]; 7 days): 7%
- Mortality rate among suckling mice, %, 8 days after infection ([14]; 8 days): 23%
- Mortality rate among suckling mice, %, 11 days after infection ([14]; 11 days): 23%
- virus reproduction in the lungs (in words) [15]: decreases the virus reproduction in the lungs of the animals
- mean titre of the virus lower than in control group ([15]; lungs, vs control group): 1.8-2.0 lg
- Titre of virus (lg) in embryo [16]: 3.2 ± 0.3 lg
- Inhibition of virus reproduction (lg) ([16]; vs solvent control): 1.3 lg

Compound: CCN1c2ccccc2NC2C(C(=O)OC3CC4CCC3(C)C4(C)C)=C(C)OC21 (stereo not shown) [compound 1b, isobornyl ester of 2-methyl-9-ethyl-3a,4,9,9a-tetrahydrofuro [2,3-b] quinoxaline-3-carboxylic acid]
- % of diseased mice and of died mice ([2]; per os, 1 mg per animal): 27%
- Efficiency, % ([2]; per os, 1 mg per animal): 65%
- Elongation of animals life in test group compared with control ([2]; per os, 1 mg per animal): 2.2 days
- Mean incubation period ([2]; per os, 1 mg per animal): 10.0 days
- Factor of reduction of number of diseased mice (protection factor) ([2]; per os, 1 mg per animal): 2.9

Compound: CCN1c2ccccc2NC2C(C(=O)OC3CC4CCC3(C)C4(C)C)=C(C)OC21 (stereo not shown) [compound 1c, bornyl-2-methyl-9-ethyl-3a,4,9,9a-tetrahydrofuro [2,3-b] quinoxaline-3-carboxylate]
- % of diseased mice and of died mice ([2]; per os, 1 mg per animal): 25%
- Efficiency, % ([2]; per os, 1 mg per animal): 64%
- Elongation of animals life in test group compared with control ([2]; per os, 1 mg per animal): 2.4 days
- Mean incubation period ([2]; per os, 1 mg per animal): 11.0 days
- Factor of reduction of number of diseased mice (protection factor) ([2]; per os, 1 mg per animal): 2.8

Compound: CC(N)C12CC3CC(CC(C3)C1)C2 (stereo not shown) [remantadine, reference compound]
- Toxicity for mice [1]: 6 mg/mouse
- % of diseased mice and died mice [2, 17]: 20%
- Efficiency, % [2, 17]: 73%
- Elongation of animal life in test group (compared with control) [2, 17]: 2.3 days
- Mean Incubation [2, 17]: 10.9
- Protection factor [2, 17]: 3.7
- LD50 [3]: 640 mg/kg

Compound: bornyl-3a,5-dimethyl-2-phenyl-3a,4,4a,5,10,10a-hexahydro-1,3,4-thiadiazole[2,3-a] quinoxaline (2,3-d) pyrrole-4-carboxylate [compound 1d]
- % of diseased mice and of died mice ([2]; per os, 1 mg per animal): 20%
- Efficiency, % ([2]; per os, 1 mg per animal): 72%
- Elongation of animals life in test group compared with control ([2]; per os, 1 mg per animal): 2.5 days
- Mean incubation period ([2]; per os, 1 mg per animal): 11.0 days
- Factor of reduction of number of diseased mice (protection factor) ([2]; per os, 1 mg per animal): 3.6

Compound: isobornyl 3a,5-dimethyl-2-phenyl-3a,4,4a,5,10,10a-hexahydro-1,3,4-thiadiazole [2,3-a] quinoxaline [2,3-d]-pyrrole-4-carboxylate [compound 1e]
- % of diseased mice and of died mice ([2]; per os, 1 mg per animal): 21%
- Efficiency, % ([2]; per os, 1 mg per animal): 71%
- Elongation of animals life in test group compared with control ([2]; per os, 1 mg per animal): 2.4 days
- Mean incubation period ([2]; per os, 1 mg per animal): 10.9 days
- Factor of reduction of number of diseased mice (protection factor) ([2]; per os, 1 mg per animal): 3.4
